According to patent US20050100529A1, “Methods of using and compositions comprising immunomodulatory compounds for the treatment and management of asbestos-related diseases and disorders” (priority 2003, published 2005):

Key:
TNF-α [1] = assay: Inhibition of TNF-α production following LPS-stimulation of human PBMC; format: cell-based; conditions: for IC50: human PBMC, LPS-stimulated, in vitro, read-out: IC50 for inhibiting production of TNF-α following LPS-stimulation of PBMC
From the text: (§1) In a specific embodiment, inhibitions of TNF-α production following LPS-stimulation of human PBMC and human whole blood by 3-(4-amino-1-oxo-1,3-dihydro-isoindol-2-yl)-piperidine-2,6-dione, 4-(amino)-2-(2,6-dioxo-(3-piperidyl))-isoindoline-1,3-dione or thalidomide were investigated in vitro.

TNF-α [2] = assay: Inhibition of TNF-α production following LPS-stimulation of human whole blood; format: cell-based; conditions: LPS-stimulated, in vitro, read-out: IC50 for inhibiting production of TNF-α following LPS-stimulation of human whole blood
From the text: as §1

IL1β = assay: LPS-stimulated production of IL1β by PBMC; format: cell-based
IL6 = assay: LPS-stimulated production of IL6 by PBMC; format: cell-based
IL10 = assay: LPS-stimulated production of IL10 by PBMC; format: cell-based
mesothelioma patients = assay: Clinical studies in unresectable or relapsed mesothelioma patients; format: in vivo, human; conditions: 10 mg as a continuous oral daily dose
Description: Clinical trials with the administration of an immunomodulatory compound in an amount of from about 1 mg to about 1,000 mg, from about 1 mg to about 500 mg, or from about 1 mg to about 250 mg per day are conducted in patients with asbestosis, malignant mesothelioma, or malignant pleural effusion mesothelioma syndrome. In a specific embodiment, patients receive about 1 mg to about 150 mg/day of 3-(4-amino-1-oxo-1,3-dihydro-isoindol-2-yl)-piperidine-2,6-dione alone or in combination with vinorelbine. Patients who experience clinical benefit are permitted to continue on treatment.
Other clinical studies are performed using 3-(4-amino-1-oxo-1,3-dihydro-isoindol-2-yl)-piperidine-2,6-dione in unresectable or relapsed mesothelioma patients that have not responded to conventional therapy. In one embodiment, 3-(4-amino-1-oxo-1,3-dihydro-isoindol-2-yl)-piperidine-2,6-dione is administered in an amount of about 1 mg to about 150 mg/day to the patients. Treatment with 10 mg as a continuous oral daily dose is well-tolerated.

[3] = crystalline polymorph of 3-(4-amino-1-oxo-1,3 dihydro-isoindol-2-yl)-piperidine-2,6-dione; cited from earlier work
[4] = solvent systems, humidity or heating as worded; cited from earlier work

Row | IC50 (TNF-α [1]) [nM] | IC50 (TNF-α [1]; same value in mass units) [µg/mL] | Compound | Hygroscopicity [3] | Stability / interconversion of the polymorphic form [4] | further results
1 | ~194000 | ~50.1 | O=C1CCC(N2C(=O)c3ccccc3C2=O)C(=O)N1 (racemic) [Thalidomide, thalidomide, reference compound] |  |  | 
2 | ~100 | ~0.0259 | Nc1cccc2c1CN(C1CCC(=O)NC1=O)C2=O (stereo not drawn) [3-(4-amino-1-oxo-1,3-dihydro-isoindol-2-yl)-piperidine-2,6-dione] |  |  | Effect on LPS-stimulated production of TNF-α by PBMC (TNF-α [1]): dose-dependent inhibition; IC50 (TNF-α [2]): ~480 nM; IC50 (TNF-α [2]; same value in mass units): ~0.104 µg/mL; Effect on LPS-stimulated production of IL1β by PBMC (IL1β): dose-dependent inhibition; Effect on LPS-stimulated production of IL6 by PBMC (IL6): dose-dependent inhibition; Effect on production of the anti-inflammatory cytokine IL10 (IL10): increased production; Tolerability (mesothelioma patients): well-tolerated
3 | ~24 | ~0.00655 | Nc1cccc2c1C(=O)N(C1CCC(=O)NC1=O)C2=O (stereo not drawn) [4-(amino)-2-(2,6-dioxo(3-piperidyl))-isoindoline-1,3-dione] |  |  | Effect on LPS-stimulated production of TNF-α by PBMC (TNF-α [1]): dose-dependent inhibition; IC50 (TNF-α [2]): ~25 nM; IC50 (TNF-α [2]; same value in mass units): ~0.00683 µg/mL; Effect on LPS-stimulated production of IL1β by PBMC (IL1β): dose-dependent inhibition; Effect on LPS-stimulated production of IL6 by PBMC (IL6): dose-dependent inhibition; Effect on production of the anti-inflammatory cytokine IL10 (IL10): increased production
4 |  |  | Nc1cccc2c1CN(C1CCC(=O)NC1=O)C2=O (stereo not drawn) [Form A, 3-(4-amino-1-oxo-1,3 dihydro-isoindol-2-yl)-piperidene-2,6-dione] | weakly or not hygroscopic | most thermodynamically stable anhydrous polymorph | 
5 |  |  | Nc1cccc2c1CN(C1CCC(=O)NC1=O)C2=O (stereo not drawn) [Form B, 3-(4-amino-1-oxo-1,3 dihydro-isoindol-2-yl)-piperidene-2,6-dione] |  | converts to Form E in aqueous solvent systems | 
6 |  |  | Nc1cccc2c1CN(C1CCC(=O)NC1=O)C2=O (stereo not drawn) [Form C, 3-(4-amino-1-oxo-1,3 dihydro-isoindol-2-yl)-piperidene-2,6-dione] | not hygroscopic below about 85% RH | can convert to Form B at higher relative humidities | 
7 |  |  | Nc1cccc2c1CN(C1CCC(=O)NC1=O)C2=O (stereo not drawn) [Form D, 3-(4-amino-1-oxo-1,3 dihydro-isoindol-2-yl)-piperidene-2,6-dione] | either weakly or not hygroscopic | convert to Form B when stressed at higher relative humidities | 
8 |  |  | Nc1cccc2c1CN(C1CCC(=O)NC1=O)C2=O (stereo not drawn) [Form E, 3-(4-amino-1-oxo-1,3 dihydro-isoindol-2-yl)-piperidene-2,6-dione] |  | In aqueous solvent systems, Form E appears to be the most stable form | 
